Calls of active or inactive are those of the source. No cut-off for these calls is given here.
Assays:
[1] = Cell viability of mouse P19 derived neurons at 1 nM by XTT reduction assay relative to control; assay type: functional
[2] = Neuroprotective activity against paclitaxel-induced toxicity in mouse P19 derived neurons assessed as cell viability at 1 nM; assay type: functional; details: read-out: Activity
[3] = Neurotoxicity against mouse P19 derived neurons after 18 hrs; assay type: toxicity
[4] = system: P19; test: Cytotoxicity against mouse P19 cells after 18 hrs; assay type: functional, cell-based; details: P19, 18 h
[5] = Therapeutic index, ratio of neurotoxic IC50 to neuroprotective activity for mouse P19 derived neurons
[6] = organism: Mus musculus; test: Neuroprotective activity against vinblastine-induced toxicity in mouse P19 derived neurons assessed as cell viability at 1 nM after 18 hrs by phase contrast microscope; assay type: functional
[7] = organism: Mus musculus; test: Neuroprotective activity against paclitaxel-induced toxicity in mouse P19 derived neurons assessed as cell viability at 1 nM after 18 hrs by phase contrast microscope; assay type: functional

## CCCOC1=C2C[C@@H](C)C[C@H](OC)[C@H](O)[C@@H](C)/C=C(\C)[C@H](OC(N)=O)[C@@H](OC)/C=C\C=C(/C)C(=O)NC(=CC1=O)C2=O
[1]
  Activity: 121%
[2]
  viability at 0.001 µM: 100%
[3]
  IC50 at 18 h: 6700 nM
[4]
  IC50: 200 nM

## CO[C@H]1/C=C\C=C(/C)C(=O)Nc2cc(O)c(O)c(c2O)C[C@@H](C)C[C@H](OC)[C@H](O)[C@@H](C)/C=C(\C)[C@@H]1OC(N)=O
[1]
  Activity: 43%

## COC1=C2C[C@@H](C)C[C@H](OC)[C@H](O)[C@@H](C)/C=C(\C)[C@H](OC(N)=O)[C@@H](OC)/C=C\C=C(/C)C(=O)NC(=C(OC)C1=O)C2=O
[1]
  Activity: 108%
[2]
  viability at 0.001 µM: 120%
[3]
  IC50 at 18 h: > 10000 nM
[5]
  selectivity ratio: > 10000
[4]
  IC50: > 10000 nM
[6]
  Activity: Active
[7]
  Activity: Active

## CCOC1=C2C[C@@H](C)C[C@H](OC)[C@H](O)[C@@H](C)/C=C(\C)[C@H](OC(N)=O)[C@@H](OC)/C=C\C=C(/C)C(=O)NC(=C(OCC)C1=O)C2=O
[1]
  Activity: 0%

## CO[C@H]1/C=C\C=C(/C)C(=O)NC2=CC(=O)C(OCc3ccccc3)=C(C[C@@H](C)C[C@H](OC)[C@H](O)[C@@H](C)/C=C(\C)[C@@H]1OC(N)=O)C2=O
[1]
  Activity: 111%
[2]
  viability at 0.001 µM: 100%
[3]
  IC50 at 18 h: > 10000 nM
[4]
  IC50: 500 nM

## COC1=C2C[C@@H](C)C[C@H](OC)[C@H](O)[C@@H](C)/C=C(\C)[C@H](OC(N)=O)[C@@H](OC)/C=C\C=C(/C)C(=O)NC(=CC1=O)C2=O [GELDANAMYCIN]
[1]
  Activity: 121%
[2]
  viability at 0.001 µM: 100%
[3]
  IC50 at 18 h: 1800 nM
[5]
  selectivity ratio: > 1800
[4]
  IC50: 100 nM

## CCOC1=C2C[C@@H](C)C[C@H](OC)[C@H](O)[C@@H](C)/C=C(\C)[C@H](OC(N)=O)[C@@H](OC)/C=C\C=C(/C)C(=O)NC(=CC1=O)C2=O
[1]
  Activity: 113%
[2]
  viability at 0.001 µM: 100%
[3]
  IC50 at 18 h: 1600 nM
[4]
  IC50: 100 nM

## CO[C@H]1/C=C\C=C(/C)C(=O)NC2=CC(=O)C(N)=C(C[C@@H](C)C[C@H](OC)[C@H](O)[C@@H](C)/C=C(\C)[C@@H]1OC(N)=O)C2=O
[1]
  Activity: 85%

## CCNC1=C2C[C@@H](C)C[C@H](OC)[C@H](O)[C@@H](C)/C=C(\C)[C@H](OC(N)=O)[C@@H](OC)/C=C\C=C(/C)C(=O)NC(=CC1=O)C2=O
[1]
  Activity: 49%

## CO[C@H]1/C=C\C=C(/C)C(=O)NC2=CC(=O)C(NCc3ccccc3)=C(C[C@@H](C)C[C@H](OC)[C@H](O)[C@@H](C)/C=C(\C)[C@@H]1OC(N)=O)C2=O
[1]
  Activity: 44%

## COC1=C2C[C@@H](C)C[C@H](OC)[C@H](O)[C@@H](C)/C=C(\C)[C@H](OC(N)=O)[C@@H](OC)/C=C\C=C(/C)C(=O)NC(=C(N)C1=O)C2=O
[1]
  Activity: 91%

## CO[C@H]1/C=C\C=C(/C)C(=O)NC2=C(NCCCO)C(=O)C(NCCCO)=C(C[C@@H](C)C[C@H](OC)[C@H](O)[C@@H](C)/C=C(\C)[C@@H]1OC(N)=O)C2=O
[1]
  Activity: 0%

## CCCNC1=C2C[C@@H](C)C[C@H](OC)[C@H](O)[C@@H](C)/C=C(\C)[C@H](OC(N)=O)[C@@H](OC)/C=C\C=C(/C)C(=O)NC(=CC1=O)C2=O
[1]
  Activity: 0%

## CO[C@H]1/C=C\C=C(/C)C(=O)NC2=CC(=O)C(O)=C(C[C@@H](C)C[C@H](OC)[C@H](O)[C@@H](C)/C=C(\C)[C@@H]1OC(N)=O)C2=O
[1]
  Activity: 50%

## CNC1=C2C[C@@H](C)C[C@H](OC)[C@H](O)[C@@H](C)/C=C(\C)[C@H](OC(N)=O)[C@@H](OC)/C=C\C=C(/C)C(=O)NC(=C(NC)C1=O)C2=O
[1]
  Activity: 46%

## CCCNC1=C2C[C@@H](C)C[C@H](OC)[C@H](O)[C@@H](C)/C=C(\C)[C@H](OC(N)=O)[C@@H](OC)/C=C\C=C(/C)C(=O)NC(=C(NCCC)C1=O)C2=O
[1]
  Activity: 0%

## C=CCNC1=C2C[C@@H](C)C[C@H](OC)[C@H](O)[C@@H](C)/C=C(\C)[C@H](OC(N)=O)[C@@H](OC)/C=C\C=C(/C)C(=O)NC(=CC1=O)C2=O
[1]
  Activity: 66%

Reference: ChEMBL document CHEMBL1139942, “Geldanamycin derivatives and neuroprotective effect on cultured P19-derived neurons” (Bioorg Med Chem Lett, 2007)
